This is an account of results in paper PMC6152192, “Novel Methylselenoesters as Antiproliferative Agents” (Molecules : A Journal of Synthetic Chemistry and Natural …, 2017).

Several values for one entry are separate records, joined by “and”; a condition that tells them apart may be missing. Equal values may be shown once.

For series [1], the system named is HT-29 (colorectal adenocarcinoma). The series is described as follows: MTT viability assay, HT-29. It is filed as cell-based. The following applies: HT-29, 72 h, MTT; for CC50: read-out: LC50 (the source's name). In short, it runs like this:
(§1)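 Cells (10,000/well; RPMI or, for BEAS-2B, DMEM with 10% FBS; 37 °C, 5% CO2) were treated 72 h with six concentrations from 0.1 to 100 μM, diluted from 0.01 M DMSO stock. MTT was added for 4 h, formazan dissolved in DMSO, absorbance read at 550 nm; GI50, TGI and LC50 derived.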
On the technique in general: Formazan colour is commonly taken as a measure of viable cells.

The next series deals with HTB-54 (lung carcinoma). The series is described as follows: MTT viability assay, HTB-54. It is filed as cell-based. The note with it: HTB-54, 72 h, MTT; for CC50: read-out: LC50 (the source's name). In short, it runs like this: as §1
Series [2] concerns MCF7 (mammary adenocarcinoma). Description: MTT viability assay, MCF7. The note with it: MCF7, 72 h, MTT; for CC50: read-out: LC50 (the source's name). It is filed as cell-based. In short, it runs like this:
as §1

The subject of series [3] is glutathione-glutaredoxin (GSH-Grx) system. Description: Glutaredoxin/glutathione assay (NADPH consumption). It counts as biochemical. The following applies: 1 mM GSH, 200 μM NADPH, yeast GR, 1 μM hGrx1 when required, 45 min. As to the method:
The assay was performed as previously described, with minor modifications and adapted for a 96-well plate. A mixture of 0.1 M Tris pH 8, 2 mM EDTA pH = 8, 0.1 mg/mL BSA, 1 mM GSH, 200 μM NADPH, and 0.008 OD/mL yeast GR was prepared (all reagents were purchased from Sigma-Aldrich). Reactions were performed with 1 μM hGrx1 (IMCO Corporation, Stockholm, Sweden) when corresponding and different concentrations of the compounds. A 100 μL mixture was added, and the final volume was adjusted to 110 μL per well. Consumption of NADPH was monitored at A340 on a VersaMax microplate reader (Molecular Devices) for 45 min.
Figure 7 Compounds 5 and 15 are substrates for thioredoxin reductase but not for the glutathione-glutaredoxin system. (A) NADPH consumption indicating reduction of compounds 5, 15 or MSA as control by thioredoxin reductase. The reaction mixture contained 100 nM TrxR1, 227 μM NADPH and the corresponding amount of compound in TE buffer (20 mM Tris, 2 mM EDTA pH = 8); (B) NADPH consumption indicating reduction of MSA by glutathione in the presence or absence of glutaredoxin. The reaction mixture contained the corresponding amount of compound, 0.1 M Tris, 2 mM EDTA pH = 8, 0.1 mg/mL BSA, 1 mM GSH, 200 μM NADPH, 0.008 OD/mL yeast GR and 1 μM hGrx1 when required. Only results for MSA are shown, as compounds 5 and 15 were not reduced.

Series [4] has as its system BEAS-2B (non-malignant bronchial epithelial). The series is described as follows: MTT viability assay, BEAS-2B. It is filed as cell-based. The note with it: BEAS-2B non-malignant, 72 h, MTT; for CC50: read-out: LC50 (the source's name). Put shortly:
as §1

The GI50 is the concentration that inhibits growth by half. For orientation: TGI means the concentration giving total growth inhibition. Lower therefore signals greater sensitivity of the cells. Regarding “Methyl 3-chlorothiophen-2-carboselenoate [Compound 5]”, the GI50 in series [1] is 3.6 ± 0.3 µM; in the series on HTB-54 (lung carcinoma), 4.9 ± 0.2 µM; in series [2], 3100 ± 900 nM; in series [4], 2700 ± 500 nM. In addition, the TGI in series [1] was 6.3 ± 0.2 µM; in series [2] it was 6.9 ± 1.1 µM; in series [4] it was 5.3 ± 0.7 µM. Moreover, the CC50 in series [1] is 8.9 ± 0.2 µM; with HTB-54 (lung carcinoma) it was 61.5 ± 3.2 µM; in series [2], 35.9 ± 4.4 µM; in series [4], 8 ± 1 µM. In addition, the “reduction by GSH in the presence or absence of glutaredoxin (NADPH consumption)” value in series [3] is reported as “not reduced”.

Regarding “Dimethyl 2,5-furandicarboselenoate [Compound 15]”, the GI50 in series [1] is 3 ± 0.5 µM; with HTB-54 (lung carcinoma), > 10 µM and 15.6 µM; in series [2] it was 1800 ± 900 nM; in series [4], 2600 ± 800 nM. The TGI amounted to 6.6 ± 0.4 µM in series [1], 46.0 ± 3.0 µM in the series on HTB-54 (lung carcinoma), 7.2 ± 1.9 µM in series [2] and 5.6 ± 0.9 µM in series [4]. Also, the CC50 worked out at 35.8 ± 5 µM in series [1], 76.3 ± 1.1 µM with HTB-54 (lung carcinoma), 57 ± 4 µM in series [2] and 8.6 ± 1.2 µM in series [4]. Moreover, in series [3], the “reduction by GSH in the presence or absence of glutaredoxin (NADPH consumption)” value is on record as “not reduced”.
